Read-outs that look alike come from different tables or passages of the source.
What was measured:
[1] = system: anaesthetised rats; test: Effects on rhythmic bladder-voiding contractions induced by bladder filling in anaesthetised rats; format: in vivo, rat; conditions: for ED50: Rattus norvegicus; for ED50 / ED10 min (extrapolated dose inducing 10 minutes of disappearance of the contractions): intravenous administration
Description: Female Sprague-Dawley rats weighing 225-275 g (Crl: CDo Br, Charles River Italia) were used. The animals were housed with free access to food and water and maintained on a forced 12-hour alternating light-dark cycle at 22-24° C. for at least one week, except during the experiment. The activity on rhythmic bladder voiding contractions was evaluated according to the method of Dray (Dray J., Pharmacol. Methods, 13:157, 1985), with some modifications as in Guarneri (Guarneri, Pharmacol. Res. 27:173, 1993). Briefly, the rats were anaesthetised by subcutaneous injection of 1.25 g/kg (5 ml/kg) urethane, after which the urinary bladder was catheterised via the urethra using PE 50 polyethylene tubing filled with physiological saline. The catheter was tied in place with a ligature around the external urethral orifice and was connected to conventional pressure transducers (Statham P23 ID/P23 XL). […] The bladder was then filled via the recording catheter by incremental volumes of warm (37° C.) saline until reflex bladder-voiding contractions occurred (usually 0.8-1.5 ml). For intravenous injection of bioactive compounds, PE 50 polyethylene tubing filled with physiological saline was inserted into the jugular vein.
From the cystometrogram, the number of contractions recorded 15 minutes before (basal values) and after treatment, as well as the mean amplitude of these contractions (mean height of the peaks in mmHg), was evaluated.
Since most compounds produced an effect that was relatively rapid in onset and led to a complete cessation of bladder contractions, bioactivity was conveniently estimated by measuring the duration of bladder quiescence (i.e. the length of the time during which no contractions occurred). The number of tested animals showing a reduction in the number of contractions higher than 30% of that observed in the basal period was recorded too.
The extrapolated doses which induced a reduction in the number of contractions greater than 30% in 50% of the treated rats (ED50) were evaluated by the method of Bliss (Bliss C. I., Quart J. Pharm. Pharmacol. 11, 192-216, 1938).

[2] = biological target: T1, human 5HT1A-serotonergic receptor (Homo sapiens, UniProt P08908); test: Radioligand binding to recombinant 5-HT1A receptors; conditions: [3H]8-OH-DPAT 1 nM, membranes of HeLa cells with human 5-HT1A receptor; Ki from IC50 by Cheng & Prusoff; read-out: Binding affinity for 5HT1A receptors, Ki
T1 construct: expressed in transfected cells; host or cells: HeLa (human cell line), stably transfected; cell membranes used
T1 sequence (P08908 1-422): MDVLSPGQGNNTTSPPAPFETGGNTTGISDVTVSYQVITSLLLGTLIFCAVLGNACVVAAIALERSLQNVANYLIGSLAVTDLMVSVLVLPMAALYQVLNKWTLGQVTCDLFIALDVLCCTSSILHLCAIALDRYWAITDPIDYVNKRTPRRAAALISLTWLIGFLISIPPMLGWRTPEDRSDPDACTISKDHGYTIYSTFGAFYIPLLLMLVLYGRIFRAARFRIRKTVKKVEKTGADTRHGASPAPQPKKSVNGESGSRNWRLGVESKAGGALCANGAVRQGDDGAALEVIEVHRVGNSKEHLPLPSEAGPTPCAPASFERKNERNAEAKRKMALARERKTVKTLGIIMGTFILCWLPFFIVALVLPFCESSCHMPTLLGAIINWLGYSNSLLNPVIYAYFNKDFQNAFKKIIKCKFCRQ
Procedure, shortened: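 Membranes from HeLa cells stably expressing human 5-HT1A incubated 30 min at 30 °C with 1 nM [3H]8-OH-DPAT and compound in 50 mM Tris-HCl pH 7.4, 2.5 mM MgCl2, […] pargyline. Nonspecific binding defined with 10 μM 5-HT; filtration readout, IC50 converted to Ki via Cheng–Prusoff.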

[3] = biological target: T2, 5-HT1A receptors (Rattus norvegicus, UniProt P19327); test: Inhibition of stereotypy (rhythmic forepaw treading) induced by 8-OH-DPAT in rats (post-synaptic antagonism); format: in vivo; conditions: for inhibition at 1 mg/kg / inhibition at 10 mg/kg: rat; for inhibition at 10 mg/kg: 10 mg/kg p.o.
T2 construct: from tissue; host or cells: whole animal: male Sprague-Dawley rats (post-synaptic 5-HT1A receptors)
T2 sequence (P19327 1-422): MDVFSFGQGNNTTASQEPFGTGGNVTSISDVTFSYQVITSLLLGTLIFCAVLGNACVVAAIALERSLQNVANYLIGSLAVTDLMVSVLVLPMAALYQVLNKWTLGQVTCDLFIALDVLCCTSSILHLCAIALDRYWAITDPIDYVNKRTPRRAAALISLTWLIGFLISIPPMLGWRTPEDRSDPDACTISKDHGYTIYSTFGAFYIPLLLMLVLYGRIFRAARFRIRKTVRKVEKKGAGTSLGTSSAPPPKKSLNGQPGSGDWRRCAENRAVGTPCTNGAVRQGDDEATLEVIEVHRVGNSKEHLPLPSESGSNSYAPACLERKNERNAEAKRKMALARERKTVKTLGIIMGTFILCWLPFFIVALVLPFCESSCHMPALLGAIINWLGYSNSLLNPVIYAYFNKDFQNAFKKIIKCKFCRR
Description: The inhibitory effect of 5-HT1A-receptor antagonists on stereotyped forepaw treading induced in rats by subcutaneous injection of 8-OH-DPAT was evaluated by the method of Tricklebank (Tricklebanket al., Eur. J. Pharmacol., 117: 15, 1985) with minor modifications as described below.
Male Sprague-Dawley rats [Crl: CD° (SD) BR] weighing 150-175 g from Charles River Italia were used. The animals were housed with free access to food and water and maintained on a forced 12-hour-light/12-hour-dark cycle at 22-24° C. of temperature. On the day of the experiment, the rats were placed singly in clear plastic containers, 10-15 minutes before administration of the vehicle or compounds to be tested. For evaluation of antagonistic activity after oral administration, the compounds were administered 0.5, 1 and 4 hours before induction of stereotypy by 8-OH-DPAT (1 mg/kg subcutaneously). Observation sessions lasted 30 seconds and began 3 minutes after 8-OH-DPAT treatment and were repeated every 3 minutes over a period of 15 minutes.
The appearance of the symptom induced by postsynaptic stimulation of 5-HT1A receptors was noted, and the intensity was scored using an intensity scale in which: 0=absent, 1=equivocal, 2=present and 3=intense. Behavioural scores for treated rats were accumulated throughout the observation time (5 observation periods) and expressed as mean values of 4 rats/dose. Change in mean values of treated animals in comparison with control (vehicle) group, expressed as per-cent inhibition, was used in order to quantify the antagonistic activity.

[4] = system: conscious rats; test: Effect on cystometric parameters in conscious rats after oral administration; format: in vivo, rat; conditions: 3 mg/kg p.o., 1-5 h after treatment, versus vehicle
Description: Male Sprague-Dawley rats [Crl: CD° (SD) BR] of 300-400 g supplied by Charles River Italia were used. The animals were housed with free access to food and water and maintained on a forced 12-hour-light/12-hour-dark cycle at 22-24° C. of temperature, except during the experiment. To quantify urodynamic parameters in conscious rats, cystometrographic studies were performed according to the procedure previously reported (Guarneri et al., Pharmacol. Res. 24: 175, 1991).
Briefly, the rats were anaesthetised by intraperitoneal administration of 3 ml/kg of Equithensin solution (pentobarbital 30 mg/kg and chloral hydrate 125 mg/kg) and placed in a supine position. An approximately-10-mm-long midline incision was made in the shaved and cleaned abdominal wall. The urinary bladder was gently freed from adhering tissues, emptied and then cannulated via an incision in the bladder body, using a polyethylene cannula (0.58-mm internal diameter, 0.96-mm external diameter) which was permanently sutured with silk thread. The cannula was exteriorised through a subcutaneous tunnel in the retroscapular area, where it was connected to a plastic adapter in order to avoid the risk of removal by the animal. For drug testing, the rats were utilised one day after implantation.
On the day of the experiment, the rats were placed in modified Bollman cages, i.e. restraining cages that were large enough to permit the rats to adopt a normal crouched posture, but narrow enough to prevent turning around. […] The intraluminal-pressure signal during infusion of saline into the bladder was continuously recorded on a polygraph (Rectigraph-8K San-ei with BM614/2 amplifier from Biomedica Mangoni) and, from the cystometrogram, two urodynamic parameters were evaluated: bladder volume capacity (BVC) and micturition pressure (MP). […] Basal BVC and MP values were evaluated as mean of the values observed in the cystometrograms recorded in an initial period of 30-60 minutes. […] The bladder infusion restarted and changes in BVC and MP were evaluated from the mean values obtained in the cystometrograms observed during 1, 2, 3, 4 and 5 hours after treatment. […]
All data were expressed as mean±standard error. Time-course data were analysed by S.A.S./STAT software, version 6.12. The difference between vehicle and active-treatment effect was evaluated by: General Linear Model Procedure—Repeated Measures Analysis of Variance: Univariate test of Hypotheses for within Subject Effects—Analysis of Variance of Contrast Variables. […]

[5] = urethane-anaesthetised rats, read-out: ED50 frequency (extrapolated dose inducing a reduction of the number of contractions >30% in 50% of treated rats)
[6] = 1 h before 8-OH-DPAT (1 mg/kg s.c.)
[7] = 4 h before 8-OH-DPAT (1 mg/kg s.c.)

Ki [2] [nM] | SMILES | ED50 [1, 5] [mg/kg] | ED10 min (extrapolated dose inducing 10 minutes of disappearance of the contractions) ([1]; urethane-anaesthetised rats) [mg/kg] | also measured
0.2 | O=C(C1CCCCC1)N1c2ccccc2CCC1CN1CCN(c2cccc3[nH]ccc23)CC1 (single isomer, unassigned; (+)) [Example (+)-1, (+)-1-(1-Cyclohexanecarbonyl-1,2,3,4-tetrahydroquinoline-2-ylmethyl)-4-(4-indolyl)piperazine] | 0.024 | 0.072 | post-synaptic 5-HT1A-receptor antagonist activity (in words) ([3]; 1 mg/kg p.o., rats): significant and complete inhibition of the symptom up to 4 hours after administration; inhibition at 1 mg/kg ([3]; 1 mg/kg p.o., 0.5 h before 8-OH-DPAT (1 mg/kg s.c.)): 100%; inhibition at 1 mg/kg ([3]; 1 mg/kg p.o., 1 h before 8-OH-DPAT (1 mg/kg s.c.)): 100%; inhibition at 1 mg/kg ([3]; 1 mg/kg p.o., 4 h before 8-OH-DPAT (1 mg/kg s.c.)): 98%
8.4 | COc1ccccc1N1CCN(CCC2CCc3ccccc3N2C(=O)C2CCCCC2)CC1 (stereo not shown) [Example 3, 1-[2-(1-Cyclohexanecarbonyl-1,2,3,4-tetrahydroquinoline-2-yl)ethyl]-4-(2-methoxyphenyl)piperazine] | 0.02 | 0.08 | –
5.4 | O=C(C1CCCC1)N1c2ccccc2CCC1CN1CCN(c2cccc3[nH]ccc23)CC1 (stereo not shown) [Example 24A3, 1-(1-Cyclopentanecarbonyl-1,2,3,4-tetrahydroquinoline-2-ylmethyl)-4-(4-indolyl)piperazine] | – | – | inhibition at 10 mg/kg ([3]; 0.5 h before 8-OH-DPAT (1 mg/kg s.c.)): 100%; inhibition at 10 mg/kg [3, 6]: 93%; inhibition at 10 mg/kg [3, 7]: 100%
4 | Cc1[nH]c2cccc(N3CCN(CC4CCc5ccccc5N4C(=O)C4CCCCC4)CC3)c2c1C (stereo not shown) [Example 35A13, 1-(1-Cyclohexanecarbonyl-1,2,3,4-tetrahydroquinoline-2-ylmethyl)-4-(2,3-dimethyl-4-indolyl)piperazine] | – | – | inhibition at 10 mg/kg [3, 6]: 95%; inhibition at 10 mg/kg [3, 7]: 100%

The next lines start with the molecule.

SMILES | Ki [2] [nM] | ED50 [1, 5] [mg/kg] | ED10 min (extrapolated dose inducing 10 minutes of disappearance of the contractions) ([1]; urethane-anaesthetised rats) [mg/kg] | also measured
COc1ccccc1N1CCN(CC2CCc3ccccc3N2C(=O)C2CCCCC2)CC1 (stereo not shown) [Example 2, 1-(1-Cyclohexanecarbonyl-1,2,3,4-tetrahydroquinoline-2-ylmethyl)-4-(2-methoxyphenyl)piperazine] | 0.3 | 0.172 | 0.383 | –
Cc1c(-c2ccccc2)oc2c(C(=O)OCCN3CCCCC3)cccc2c1=O [Flavoxate, flavoxate, reference compound] | – | 2.65 | >10 | –
CCN(CC)CC#CCOC(=O)C(O)(c1ccccc1)C1CCCCC1 (stereo not shown) [Oxybutynin, oxybutynin, reference compound] | – | > 10 | 7.77 | ED50 ([1]; n.a. = not active, no significant reduction of the height of the peaks, read-out: ED50 amplitude (extrapolated dose inducing a 30% reduction of amplitude of the contractions in 50% of treated rats)): 0.24 mg/kg; cessation of bladder contractions (in words) ([1]; intravenous, anaesthetised rats): does not cause cessation of bladder contractions; effect on bladder volume capacity (BVC) [4]: slight, not-significant increase; effect on micturition pressure (MP) [4]: greatly reduced

Source: US20030162777A1, “Novel N-acylated heterocycles” (Recordati S.A., priority 2001, published 2003)
